Several values for one entry are separate records, joined by “and”; a condition that tells them apart may be missing. Equal values may be shown once. Read-outs that look alike come from different tables or passages of the source.
Tests used:
downy mildew [1] = assay: Cucumber downy mildew treating effect test (Test Example 1, Compound No. 1 with other fungicides); assay type: in vivo, cucumber (variety: Sagami Hanjiro)
Description: A cucumber (variety: Sagami Hanjiro) was cultivated in a plastic pot of 7.5 cm in diameter, and when it reached the bifoliate stage, a spore suspension of downy mildew was spray-inoculated thereto. Each of the liquids to be tested was sprayed thereto 17 hours thereafter using a spray gun at a ratio of 5 ml per seedling. In addition, the above-described Compound No. 1 liquid was also sprayed in the same manner. After keeping in a constant temperature chamber at 22 to 24° C. for 6 days, area of the lesion on the first leaf was inspected to calculate lesion area ratio (%), with the results shown in Table 3 and Table 4. In addition, each of the theoretical values of the infection ratio calculated based on the Colby's formula is also shown by the parentheses in Table 3 and Table 4.

late blight fungus = assay type: in vivo, tomato (variety: Ponderosa); conditions: for synergistic effect in mixed use with Compound No. 1: within the same concentration range as the preceding table
downy mildew [2] = assay: Cucumber downy mildew treating effect test (Reference Example, Compound No. 1 with spreaders); assay type: in vivo, cucumber (variety: Sagami Hanjiro); conditions: no mixed use of spreader
Description: An effect reinforcing component was dispersed in water to a concentration of from 1,000 times to 10,000 times, and then the above-described Compound No. […] In this case, the spreaders shown in Table 1 and Table 2 were used as the effect reinforcing components. In addition, for the sake of comparison, a predetermined concentration (63 ppm or 16 ppm) of Compound No. 1 liquid containing no effect reinforcing component was prepared in the same manner as the above-described water dispersion.
A cucumber (variety: Sagami Hanjiro) was cultivated in a plastic pot of 7.5 cm in diameter, and when it reached the bifoliate stage, a spore suspension of downy mildew was spray-inoculated thereto. Each of the water dispersions to be tested was sprayed thereto 17 hours thereafter using a spray gun at a ratio of 5 ml per seedling. In addition, the above-described Compound No. 1 liquid was also sprayed in the same manner. After keeping in a constant temperature chamber at 22 to 24° C. for 6 days, area of the lesion on the first leaf was inspected to calculate lesion area ratio (%), with the results shown in Table 1 and Table 2. In addition, each of the theoretical values of the infection ratio calculated based on the Colby's formula was also shown by the parentheses in Table 1 and Table 2. In this connection, results similar to those which are shown in Table 1 and Table 2 are obtained within the same concentration range when a liquid comprising the Compound No. 1 and at least one selected from the group consisting of Dimethomorph, Chlorothalonil, a copper compound, Iprovalicarb, Zoxamide, phosphorous acid or a salt thereof, Fluazinam, Cyazofamid, Flumorph, Benthiavalicarb-isopropyl, Ethaboxam, Methalaxyl-M and Benalaxyl-M was used instead of the Compound No. 1 liquid.

[3] = other fungicide alone 25 g/ha, 300 liters per hectare
[4] = other fungicide alone 100 g/ha, 300 liters per hectare
[5] = other fungicide alone 250 g/ha, 300 liters per hectare
[6] = other fungicide alone 250 ppm (Compound No. 1 0 ppm)
[7] = other fungicide alone 200 ppm (Compound No. 1 0 ppm)

`[Cl-].[Cu+2].[Cu+2].[OH-].[OH-].[OH-]` [Basic copper chloride, basic copper chloride] gave a lesion area ratio (downy mildew [1]; other fungicide alone 1,000 ppm (Compound No. 1 0 ppm)) of 100%, a lesion area ratio (late blight fungus; other fungicide alone 500 ppm, sprayed at 10 ml per seedling) of 100% and a lesion area ratio (late blight fungus; other fungicide alone 1,000 ppm, sprayed at 10 ml per seedling) of 100%.

Compound `COC(=O)[C@@H](C)N(C(=O)Cc1ccccc1)c1c(C)cccc1C` [Benalaxyl-M] has a lesion area ratio (late blight fungus; [3]) of 50.0%, a lesion area ratio (late blight fungus; [4]) of 25.0% and a lesion area ratio (late blight fungus; [5]) of 6.25%.

For `CC(C)OC(=O)N[C@H](C(=O)N[C@H](C)c1nc2ccc(F)cc2s1)C(C)C` [Benthiavalicarb-isopropyl], the “synergistic effect in mixed use with Compound No. 1” value (late blight fungus) was “Synergistic effect can also be obtained”.

`N#Cc1c(Cl)c(Cl)c(Cl)c(C#N)c1Cl` [Chlorothalonil] gave a lesion area ratio (downy mildew [1]; other fungicide alone 500 ppm (Compound No. 1 0 ppm)) of 100%, a lesion area ratio (late blight fungus; other fungicide alone 13 ppm, sprayed at 10 ml per seedling) of 100% and a lesion area ratio (late blight fungus; other fungicide alone 25 ppm, sprayed at 10 ml per seedling) of 17%. For the same compound, the lesion area ratio (late blight fungus; [4]) was 18.8% and the lesion area ratio (late blight fungus; [5]) was 25.0%.

Work on `Cc1c(Br)c2ccc(F)cc2n1S(=O)(=O)c1ncn(S(=O)(=O)N(C)C)n1` [Compound No. 1, 1-(N,N-dimethylsulfamoyl)-3-(3-bromo-6-fluoro-2-methylindol-1-yl)sulfonyl-1,2,4-triazole] yielded a lesion area ratio (downy mildew [1]; Compound No. 1 4 ppm, no mixed use of other fungicide) of 30%, a lesion area ratio (downy mildew [1]; Compound No. 1 16 ppm, no mixed use of other fungicide) of 60% and a lesion area ratio (downy mildew [1]; Compound No. 1 63 ppm, no mixed use of other fungicide) of 40%. For the same compound, the lesion area ratio (downy mildew [2]; Compound No. 1 4 ppm) was 30%, the lesion area ratio (downy mildew [2]; Compound No. 1 16 ppm) was 60% and the lesion area ratio (downy mildew [2]; Compound No. 1 63 ppm) was 40%. The lesion area ratio (late blight fungus; Compound No. 1 1 ppm, no mixed use of other fungicide, sprayed at 10 ml per seedling) was 83%, the lesion area ratio (late blight fungus; Compound No. 1 alone 25 g/ha, 300 liters per hectare) was 62.5% and 37.5% and the lesion area ratio (late blight fungus; Compound No. 1 alone 250 g/ha, 300 liters per hectare) was 31.3% and 25.0% and 37.5%.

For `[Cu+2].[OH-].[OH-]` [Cupric hydroxide, cupric hydroxide], the lesion area ratio (late blight fungus; other fungicide alone 200 g/ha, 300 liters per hectare) was 50.0%, the lesion area ratio (late blight fungus; other fungicide alone 800 g/ha, 300 liters per hectare) was 43.3% and the lesion area ratio (late blight fungus; other fungicide alone 2000 g/ha, 300 liters per hectare) was 43.8%.

Work on `Cc1ccc(-c2c(Cl)nc(C#N)n2S(=O)(=O)N(C)C)cc1` [Cyazofamid] yielded a lesion area ratio (late blight fungus; other fungicide alone 10 g/ha, 300 liters per hectare) of 25.0% and a lesion area ratio (late blight fungus; other fungicide alone 40 g/ha, 300 liters per hectare) of 18.8%.

Compound `COc1ccc(C(=CC(=O)N2CCOCC2)c2ccc(Cl)cc2)cc1OC` [Dimethomorph] has a lesion area ratio (downy mildew [1]; [6]) of 100%, a lesion area ratio (downy mildew [1]; other fungicide alone 350 ppm (Compound No. 1 0 ppm)) of 100% and a lesion area ratio (late blight fungus; [3]) of 87.5%. The lesion area ratio (late blight fungus; [4]) was 75.0% and the lesion area ratio (late blight fungus; [5]) was 62.5%.

`CCNc1nc(CC)c(C(=O)NC(C#N)c2cccs2)s1` (centres unmarked) [Ethaboxam] gave a lesion area ratio (downy mildew [1]; [7]) of 30%, a lesion area ratio (late blight fungus; [3]) of 6.25% and a lesion area ratio (late blight fungus; [4]) of 6.25%.

For `O=[N+]([O-])c1cc(C(F)(F)F)c(Cl)c([N+](=O)[O-])c1Nc1ncc(C(F)(F)F)cc1Cl` [Fluazinam], the lesion area ratio (late blight fungus; [4]) was 37.5% and the lesion area ratio (late blight fungus; [5]) was 37.5%.

Compound `COc1ccc(/C(=C\C(=O)N2CCOCC2)c2ccc(F)cc2)cc1OC` [Flumorph] has a lesion area ratio (late blight fungus; [4]) of 31.3% and a lesion area ratio (late blight fungus; [5]) of 12.5%.

`Cc1ccc(C(C)NC(=O)[C@@H](NC(=O)OC(C)C)C(C)C)cc1` (some centres unmarked) [Iprovalicarb] gave a lesion area ratio (downy mildew [1]; [6]) of 100%, a lesion area ratio (late blight fungus; [3]) of 25.0% and a lesion area ratio (late blight fungus; [4]) of 6.25%. The lesion area ratio (late blight fungus; [5]) was 6.25%.

With `COCC(=O)N(c1c(C)cccc1C)[C@H](C)C(=O)OC` [Metalaxyl-M] the “synergistic effect in mixed use with Compound No. 1” value (late blight fungus) was “Synergistic effect can also be obtained”.

`O=[PH]([O-])[O-].[K+].[K+]` [Potassium phosphite, potassium phosphite (K2HPO3)] showed a lesion area ratio (downy mildew [1]; [6]) of 100%.

`CCCOC(=O)NCCCN(C)C` [Propamocarb] gave a lesion area ratio (downy mildew [1]; other fungicide alone 1,600 ppm (Compound No. 1 0 ppm)) of 60%, a lesion area ratio (late blight fungus; [4]) of 87.5% and a lesion area ratio (late blight fungus; other fungicide alone 400 g/ha, 300 liters per hectare) of 75.0%.

Work on `O=[PH]([O-])[O-].[Na+].[Na+]` [Sodium phosphite, sodium phosphite (Na2HPO3)] yielded a lesion area ratio (late blight fungus; other fungicide alone 500 g/ha, 300 liters per hectare) of 75.0%, a lesion area ratio (late blight fungus; other fungicide alone 1000 g/ha, 300 liters per hectare) of 75.0% and a lesion area ratio (late blight fungus; other fungicide alone 1500 g/ha, 300 liters per hectare) of 50.0%.

`CCC(C)(NC(=O)c1cc(Cl)c(C)c(Cl)c1)C(=O)CCl` (centres unmarked) [Zoxamide] was tested, and the lesion area ratio (downy mildew [1]; [7]) was 100%, the lesion area ratio (late blight fungus; [3]) was 43.8% and the lesion area ratio (late blight fungus; [4]) was 50.0%.

— US8802708B2 (priority 2004, dated 2014)
